melting point [°C] | SMILES
144 to 146 | Cc1c(F)c(Br)cc(Br)c1C(=O)O
158 to 160 | CCOC(=O)NNc1ccc(-c2ccccc2)nn1
162 to 163 | CCCc1nc2c(N)nc3cccnc3c2n1CCCCS(=O)(=O)N(C)C
228 to 229 | COc1cc2ncnc(N3CCN(C(=O)NCc4ccc(CO)cc4)CC3)c2cc1OC
177 to 178 | Cc1c(NC(=O)CC(C)(C)C)cc2c(c1C)OCC2c1ccc(C(C)C)cc1 (configuration not stated)
182 to 183 | O=C(O)[C@@H]1CC[C@@H](Oc2ccccc2)c2c(-c3ccc(Cl)cc3)noc2C1 (relative stereo)
162 to 164 | CON1C=C2N=NC3=C(N2C1)N(c1ccccn1)CC(C1CC1)=C3
143 to 146 | N#Cc1cc(-c2ccoc2)c2ccc(Sc3cccc(-c4ccccc4)n3)cc2c1
173 to 175 | CC1=C(C(=O)OCCN(C)Cc2ccccc2)C(c2cccc3ncc(-c4ccc(C)cc4)cc23)C2=C(COC2=O)N1 (configuration not stated)
95 to 100 | CCCCCCN(CCCCCC)c1c(N[C@@H](Cc2ccc(NC(=O)c3ccccc3)cc2)C(=O)O)c(=O)c1=O
167 to 171 | CNC(=O)NCCn1c(-c2ccc(CCN3CCOCC3)cc2)csc1=Nc1ccc(F)c(C)c1
205 | CNC(=O)c1cc(Br)cc(I)c1
171 to 173 | O=C(O)COc1cc(Cl)c2c(c1)OCC(c1ccccc1)C2=O (configuration not stated)
300 to 320 | Cc1c(-c2ccc(Cl)c(C(=O)N(C)C)c2)sc2nc(N)[nH]c(=O)c12
171 to 172 | Cc1nc(Br)cnc1NS(=O)(=O)c1cccc2c(N(C)C)cccc12
141 to 145 | CC(C)(C)OC(=O)N1CCC(COc2ccc(N3CCCC3)cc2)CC1
160 to 162 | COc1ccc(S(=O)(=O)Nc2ccccc2NC(=O)c2ccc(F)cc2Cl)cc1
> 250 | O=c1[nH]c2ccccc2c(-c2ccccc2)c1-c1csc(-c2ccncc2)n1
175 to 176 | COc1ccc(Cl)c(NC(=S)N(CCN2C(=O)c3ccccc3C2=O)OCc2ccccc2)c1Cl
273 to 275 | CCc1nc2c(N)nc3cc(CCC#N)ccc3c2n1CC1CCOCC1
125 to 128 | CC(C#N)NNC(N)=O (configuration not stated)
> 360 | CCn1c(=O)c2[nH]c(-c3ccc(S(=O)(=O)O)cc3)nc2n(CC)c1=O
65 to 67 | CCCNc1cn(-c2cccnc2)nc1C

melting point [°C] | SMILES
136 to 137 | COc1cccc2c1nc(C(F)F)n2-c1nc(Nc2ccc(N(C)C)nc2)nc(N2CCOCC2)n1
239 to 240 | COc1cc2[nH]c(C(=O)O)cc2cc1F
191 | COC(=O)c1c(C(C)C)nc2c(c1-c1ccc(F)cc1)CCC(=O)N2
44 | COC(=O)Cc1ccc(C(C)=O)cc1
120 to 122 | O=C(c1cccc(Nc2ncnc3ccccc23)c1)N1CCN(c2ncc(Cc3ccccc3)cn2)CC1
152 to 153 | O=S(=O)(c1ccc(C(CC2CCOCC2)c2ccc(-c3ccc(Cn4cncn4)cn3)[nH]2)cc1)C1CC1 (configuration not stated)
165 to 166 | CCN1C(=O)C(C)(C)C(=O)N(C)c2cc(CCN(CCn3cc(C)c4occc4c3=O)Cc3cnccc3C)ccc21
248 to 260 | NC(=O)N1C(=O)C(C(=O)c2ccco2)c2nc(Cl)ccc21 (configuration not stated)
97 to 98 | CO/N=C(\C(=O)OC)c1csc(O)n1
118 to 120 | COc1ccc(C(C)C)cc1-c1cc(-c2nnnn2CCc2ccccc2)c(OCc2ccccc2)cc1OCc1ccccc1
82 to 83 | COc1ccc2c(n1)CC(=O)N2CCCBr
128 to 131 | CCCCNC(=O)c1ccc2c(c1)[C@H]1OCCN(CCC)[C@@H]1CC2 (relative stereo)
> 250 | CCc1ccc(Nc2nc3cc(NC(=O)c4ccc(Cl)c(Cl)c4)ccc3o2)cc1
128 to 132 | CNC(=NS(C)(=O)=O)NCCCCc1csc(NC(N)=NCCO)n1
161 to 162 | O=C(NCC12CC3CC(CC(C3)C1)C2)c1cc(I)ccc1Cl
188 to 190 | COc1cc(C=C2OC(C)=CC2=O)cc(OC)c1O
227 to 229 | Cc1cccc(C)c1NC(=O)NC1(c2ccccc2)CCCC1
239 to 240 | CC(C)C1(C)N=C(c2nc3occ(Cl)c3cc2C(=O)O)NC1=O (configuration not stated)
69 to 70 | COc1cccc(CN(C)C)c1SCc1ccccc1
178 to 179 | COc1cc2c(cc1OC)-c1cc(=Nc3c(C)cc(C)cc3C)n(C(C)C)c(=O)n1CC2
245 to 246 | CNC(=O)c1sc(NC(C)=O)nc1CCc1ccc(NC(NC(=O)OC(C)(C)C)NC(=O)OC(C)(C)C)cc1
79 to 81 | COC(=O)NCCOC(=O)C(C)Oc1ccc(OCc2ccccc2)cc1 (configuration not stated)
295 to 296 | O=c1ccc2cc(C(O)(C(F)(F)F)C(F)(F)F)cc3c2n1CCC3

melting point [°C] | SMILES
226 to 228 | Nc1c(SSc2c(-c3ncon3)nn(-c3c(Cl)cc(C(F)(F)F)cc3Cl)c2N)c(-c2ncon2)nn1-c1c(Cl)cc(C(F)(F)F)cc1Cl
177 to 179 | CCC1(CC)CN(C2CC3(C)C(CCC4C5CCC(C(C)=O)C5(C)CC(=O)C43)CC2O)CCO1 (configuration not stated)
190 to 191 | OC1(CCc2ccc3[nH]cc(C4CCNCC4)c3c2)CCCC1
103 to 104 | CCOC(=O)COc1cc2c(c(O)c1Cl)C(=O)CC1(CCCCC1)O2
163 | CCOC(=O)c1cc2cc([N+](=O)[O-])ccc2s1
180 to 183 | CSC1CCC2C3CCC4=CC(=O)C=CC4(C)C3C(=O)CC12C (configuration not stated)
128 to 129 | CC(C)(C)OC(=O)NCCc1cccc(C(=O)c2cc(Cl)ccc2N)c1
185 to 187 | Nc1ncc(CN2CCN(c3ccccc3)CC2)c2nc(-c3ccco3)nn12
171 to 172 | O=C1c2ccccc2C(=O)N1CCCOc1cccc2[nH]c3ccccc3c12
227 to 230 | CCNC(=O)CCC1CCN(Cc2cnc3cc(NC(=O)c4ccc(-c5ccc(F)cc5)cc4)c(C)cc3c2)CC1
107 to 108 | O=C(O)CCc1cn(Cc2ccc(OCc3csc(-c4ccccc4)n3)nc2)nc1-c1ccccc1
111 to 112 | C=CC=CCC1CC(NC(=O)C(F)(F)F)C(O)C(C)O1 (configuration not stated)
68 to 73 | CC(C)(C)c1cc(CO)c(O)c(CO)c1
67 to 70 | COc1cc(OC)c(N=C=O)c(OC)c1
140 | O=c1c(-c2ccccc2)ccc2n1CCc1ccccc1-2
44 to 46 | COC(=O)Cn1c(C)ccc1C
106 to 110 | C[C@@H](NC(=O)c1ccc(-c2cc(C(F)(F)F)nn2C)s1)[C@](O)(Cn1cncn1)c1ccc(F)cc1F
106 to 107 | Cc1ccnc2c1C(=O)CC(c1ccc(F)cc1F)C2 (configuration not stated)
143 to 144 | c1ccc(Cc2n[nH]c(NCCCOc3cccc(CN4CCCCC4)c3)n2)cc1
219 | COc1ccc(-c2ccnc(-c3cn(C)c(=O)n3-c3ccc(C(C)(C)C#N)cc3)c2)cc1
149 | CCOC(=O)c1cccc2[nH]c3c(C)ccc(C)c3c12
143 to 144 | Cc1oc(-c2ccccc2)nc1COc1cncc(COc2cccc(CC(=O)O)c2)c1
127 to 128 | O=C1CCC(NC(=O)OC(=O)c2ccccc2)(C(=O)OCc2ccc([N+](=O)[O-])cc2)O1 (configuration not stated)

melting point [°C] | SMILES
225 to 226 | COc1cc2c(cc1-c1cccnc1)-c1c(-c3cccs3)c3c(n1CC2)C(=O)N(C(C)C)CCN(C(C)=O)C3
55 to 56 | CC(NOCc1ccccc1)c1cc2ccccc2s1 (configuration not stated)
198 | C=CCc1c(O)cc(OC)c2c(C)cc(=O)oc12
167 to 168 | CC1(C)CC(=O)c2cccc(C(=O)O)c2C1
111 to 115 | CCOC(=O)C1=Cc2cc([N+](=O)[O-])ccc2OC1C(F)(F)F (configuration not stated)
164 to 165 | COC(=O)C1=C(N)CCC(C#N)(c2ccc(OC)c(OCC3CC3)c2)C1 (configuration not stated)
123 to 125 | O=S(=O)(NCC1CCN(CCCOc2ccc(F)cc2)CC1)c1cccc2cnccc12
100 | COc1ccc(C(=O)C=CC(=O)O)c(OC)c1OC
> 260 | c1ccc(Sc2cc3cc4cc5ccccc5cc4cc3cc2Sc2ccccc2)cc1
38 to 40 | CC(C)(C)OC(=O)C[C@@H](CC1CCCC1)C(=O)N1CCCCC1
49 to 50 | CCCOc1ccc(-c2scc(-c3ccccc3Cl)c2CC(=O)NC(=N)NCCCO)cc1
228 | c1ccc(COc2ccc(-c3nnn[nH]3)cc2)cc1
189 to 193 | COc1ccc2c(c1)Cc1c-2[nH]c2ccc(OCc3ccccc3)cc12
132 to 135 | CN(Cc1cc2c(=O)c(C(=O)NCc3ccc(Cl)cc3)cn(C)c2s1)CC(O)c1cccnc1 (single isomer, unassigned; (+))
116 to 117 | Cc1nc(C(C)C)c(S(=O)(=O)c2ccccc2)n1COCc1ccccc1
73.5 to 75 | CCN(CC)CCOc1cccc2c1c1cccc(Cl)c1n2Cc1ccccc1
135 to 137 | COc1cc(C=C(C(C)=O)C(C)=O)ccc1O
159 to 164 | NC(=O)c1cccc(NC(=O)C(CS)Cc2ccccc2)c1 (configuration not stated)
125 to 126 | COc1cc(C)nc(-c2ccc(C=O)cc2)n1
140 to 142 | C=CC(C)n1ncc(-c2ccc(S(C)(=O)=O)cc2)c(-c2ccc(F)cc2)c1=O (configuration not stated)
92 to 94 | COC(=O)c1cc([N+](=O)[O-])c(Cl)c(S(=O)(=O)Cl)c1

SMILES | melting point [°C]
CCn1nc(Br)c([N+](=O)[O-])c1CCN | 84.9 to 87.4
CCCCCCCCCCCCCCCCCC(=O)NC#N | 74 to 75
CC1Oc2c(C(=O)[NH+]([O-])C3CN4CCC3CC4)cc(Cl)cc2N(C)C1=O (configuration not stated) | 188 to 190
CN1CC2CC(=NO)c3cccc4c3N2C(C1)c1ccccc1C4 (configuration not stated) | 209 to 210
Cc1ccc2c3c(ccc2n1)OCC(CN1C2CCC1CC(O)(c1cccc(C(F)(F)F)c1)C2)O3 (configuration not stated) | 146 to 150
CCOC(=O)C1(c2ccccc2)CCN(C2CCC(C#N)(c3ccccn3)CC2)CC1 (configuration not stated) | 157
CCC(C)(O)C1(c2cccc(OC)c2)CCN(C)CC1 (configuration not stated) | 134 to 135

From a melting point compilation (Tetko et al.; mined from patent text by program, amines drawn as free bases though some values may be those of a salt)
